In patent US20260297085A1, “1 H-PYRROLO[2,3-B]PYRIDIN-4-YL]-2-OXOPYRROLIDINE-3-CARBONITRILE DERIVATIVES AS TYROSINE KINASE 2 (TYK2) INHIBITORS FOR THE TREATMENT OF INFLAMMATORY DISEASES” (BIOGEN MA INC., priority 2023, published 2026) one finds IC50 data, which are given here for 23 molecules.

What all share (conditions): JH1 kinase domain, ADP-Glo
For assay [1], the target named is T1, human TYK2 kinase domain (JH1) (Homo sapiens, UniProt P29597).
T1 construct: recombinantly generated catalytic kinase (also known as JH1) domain of human JAK1, JAK2, JAK3 and TYK2
T1 sequence (P29597 897-1176 limits assumed): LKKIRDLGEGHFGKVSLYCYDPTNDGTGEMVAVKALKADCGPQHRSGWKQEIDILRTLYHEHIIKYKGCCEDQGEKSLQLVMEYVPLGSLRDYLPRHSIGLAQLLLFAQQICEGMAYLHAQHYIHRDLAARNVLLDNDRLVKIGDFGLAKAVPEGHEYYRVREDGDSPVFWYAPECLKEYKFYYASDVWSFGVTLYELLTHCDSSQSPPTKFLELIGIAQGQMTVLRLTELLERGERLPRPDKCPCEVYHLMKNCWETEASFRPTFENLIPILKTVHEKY
As to the kind of experiment: JH1 biochemical assay for TYK2 (ADP-Glo kinase assay, recombinant JH1 catalytic domain, JAK3-974 peptide, 10 μM ATP). The procedure: (§1) Compounds of the disclosure were assessed for their ability to inhibit TYK2, JAK1, JAK2, and JAK3 activity. The inhibitory properties of the compounds of the disclosure described herein can be evidenced by testing in any one of the following protocols.
(§2) The kinase activity of recombinantly generated catalytic kinase (also known as JH1) domain of human JAK1, JAK2, JAK3 and TYK2 were evaluated in a plate-based assay using the ADP-Glo™ Kinase Assay platform. Specifically, 4 nM of recombinant JAK1 kinase domain is used to phosphorylate 50 μM of a JAK3-342 (sequence ALVDGYFRLTT) peptide in the presence of 35 μM ATP. Catalytic activities of recombinant JAK2, JAK3 and TYK2 kinase domain (0.2, 0.3 and 2 nM, respectively) are evaluated by the phosphorylation status of the JAK3-974 (50 μM; sequence LPLDKDYYVVR) peptide with the addition of ATP (15, 4 and 10 μM, respectively). The reactions proceed for 100 minutes and the catalytic activity is quantified by first depleting the unused ATP, converting the hydrolyzed ADP into ATP to generate luminescence in a luciferase reaction; which is the basis of the ADP-Glo platform. Compounds are tested at either 10 μM or 1 μM top concentration, 11 points of 3-fold dilution. The data is normalized and the percent activity versus log concentration of compound is fitted with a 4-parameter logistic model to generate a curve and an IC50 value.

In assay [2] the target is T2, human JAK3 kinase domain (JH1) (Homo sapiens, UniProt P52333).
T2 construct: recombinantly generated catalytic kinase (also known as JH1) domain of human JAK1, JAK2, JAK3 and TYK2
As to the kind of experiment: JH1 biochemical assay for JAK3 (ADP-Glo kinase assay, recombinant JH1 catalytic domain, JAK3-974 peptide, 4 μM ATP). On the procedure:
as §1, §2

Assay [3] deals with T3, human JAK1 kinase domain (JH1) (Homo sapiens, UniProt P23458).
T3 construct: recombinantly generated catalytic kinase (also known as JH1) domain of human JAK1, JAK2, JAK3 and TYK2
The assay can be described thus: JH1 biochemical assay for JAK1 (ADP-Glo kinase assay, recombinant JH1 catalytic domain, JAK3-342 peptide, 35 μM ATP). The procedure: as §1, §2

The target in assay [4] is T4, human JAK2 kinase domain (JH1) (Homo sapiens, UniProt O60674).
T4 construct: recombinantly generated catalytic kinase (also known as JH1) domain of human JAK1, JAK2, JAK3 and TYK2
The assay can be described thus: JH1 biochemical assay for JAK2 (ADP-Glo kinase assay, recombinant JH1 catalytic domain, JAK3-974 peptide, 15 μM ATP). On the procedure:
as §1, §2

T3 sequence (P23458 875-1153 limits assumed): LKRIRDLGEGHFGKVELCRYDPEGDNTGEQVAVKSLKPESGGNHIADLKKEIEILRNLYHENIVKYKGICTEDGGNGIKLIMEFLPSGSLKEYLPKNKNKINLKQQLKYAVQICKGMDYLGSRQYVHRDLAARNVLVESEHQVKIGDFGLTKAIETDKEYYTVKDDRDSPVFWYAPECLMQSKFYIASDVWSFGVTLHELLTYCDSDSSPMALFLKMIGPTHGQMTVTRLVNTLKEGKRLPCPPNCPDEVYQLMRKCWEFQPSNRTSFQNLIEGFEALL
T4 sequence (O60674 849-1124 limits assumed): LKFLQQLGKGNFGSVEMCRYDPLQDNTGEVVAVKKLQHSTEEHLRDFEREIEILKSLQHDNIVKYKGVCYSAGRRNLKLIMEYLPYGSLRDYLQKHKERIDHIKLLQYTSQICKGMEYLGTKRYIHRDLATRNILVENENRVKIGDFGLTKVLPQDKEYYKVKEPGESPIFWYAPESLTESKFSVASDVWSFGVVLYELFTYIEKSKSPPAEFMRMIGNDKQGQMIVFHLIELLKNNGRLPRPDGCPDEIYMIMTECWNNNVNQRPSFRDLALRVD
T2 sequence (P52333 822-1111 limits assumed): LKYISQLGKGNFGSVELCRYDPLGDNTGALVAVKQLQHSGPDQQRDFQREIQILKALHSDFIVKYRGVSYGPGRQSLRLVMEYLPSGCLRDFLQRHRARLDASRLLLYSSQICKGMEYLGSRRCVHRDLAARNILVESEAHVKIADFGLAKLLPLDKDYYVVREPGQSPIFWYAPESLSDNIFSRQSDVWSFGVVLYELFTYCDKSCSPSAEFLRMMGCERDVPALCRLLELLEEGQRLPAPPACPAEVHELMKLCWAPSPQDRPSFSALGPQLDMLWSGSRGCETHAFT

On to `Cn1cc(-c2cc3c(N4C[C@H](C(F)F)[C@@](C#N)(C5CC5)C4=O)ccnn3c2)cn1` (racemic) [Example 152, rac-(3R,4R)-3-cyclopropyl-4-(difluoromethyl)-1-(6-(1-methyl-1H-pyrazol-4-yl)pyrrolo[1,2-b]pyridazin-4-yl)-2-oxopyrrolidine-3-carbonitrile], for which the concentration for half-maximal inhibition (IC50) was > 0.1 µM in assay [1], 1 to 5 µM in assay [2], 1 to 5 µM in assay [3] and 1 to 5 µM in assay [4].

For the molecule `Cn1cc(-c2cc3c(N4CC[C@H](C5CC5)C4=O)ccnn3c2)cn1` (single isomer, unassigned) [Example 36], the IC50 in assay [1] was > 0.1 µM; in assay [2], > 10 µM; in assay [3] it was > 10 µM; in assay [4], 5 to 10 µM.

With `Cn1cc(-c2cc3c(N4CC[C@@H](C5CC5)C4=O)ccnn3c2)cn1` (single isomer, unassigned) [Example 37], the IC50 in assay [1] was > 0.1 µM; in assay [2], 1 to 5 µM; in assay [3] it was > 10 µM; in assay [4] it was 1 to 5 µM.

For the molecule `Cn1cc(-c2cc3c(N4CC[C@@](C)(C#N)C4=O)ccnn3c2)cn1` (single isomer, unassigned) [Example 38], the IC50 in assay [1] is 0.05 to 0.1 µM; in assay [2], 1 to 5 µM; in assay [3], 1 to 5 µM; in assay [4] it was 1 to 5 µM.

On to `Cn1cc(-c2cc3c(N4CC[C@](C)(C#N)C4=O)ccnn3c2)cn1` (single isomer, unassigned) [Example 39], for which the IC50 in assay [1] was > 0.1 µM; in assay [2], > 10 µM; in assay [3], > 10 µM; in assay [4], > 10 µM.

On to `COC[C@]1(C#N)CCN(c2ccnn3cc(-c4cnn(C)c4)cc23)C1=O` (single isomer, unassigned) [Example 41], for which the IC50 in assay [1] is > 0.1 µM; in assay [2], 5 to 10 µM; in assay [3] it was > 10 µM; in assay [4] it was 5 to 10 µM.

Regarding `CC[C@]1(C#N)CCN(c2ccnn3cc(-c4cnn(C)c4)cc23)C1=O` (single isomer, unassigned) [Example 42], the IC50 in assay [1] is 0.05 to 0.1 µM; in assay [2] it was 1 to 5 µM; in assay [3], 1 to 5 µM; in assay [4], 1 to 5 µM.

For the molecule `CC[C@@]1(C#N)CCN(c2ccnn3cc(-c4cnn(C)c4)cc23)C1=O` (single isomer, unassigned) [Example 43], the IC50 is > 0.1 µM in assay [1], > 10 µM in assay [2], > 10 µM in assay [3] and > 10 µM in assay [4].

In the case of `Cn1cc(-c2cc3c(N4CC[C@](C#N)(C5COC5)C4=O)ccnn3c2)cn1` (single isomer, unassigned) [Example 44], the IC50 in assay [1] was > 0.1 µM; in assay [2], > 10 µM; in assay [3], > 10 µM; in assay [4] it was > 10 µM.

As for `Cn1cc(-c2cc3c(N4CC[C@@](C#N)(C5COC5)C4=O)ccnn3c2)cn1` (single isomer, unassigned) [Example 45], the IC50 is > 0.1 µM in assay [1], > 10 µM in assay [2], > 10 µM in assay [3] and > 10 µM in assay [4].

For the molecule `Cn1cc(-c2cc3c(N4CC[C@@](C#N)(C5CCC5)C4=O)ccnn3c2)cn1` (single isomer, unassigned) [Example 46], the IC50 in assay [1] was > 0.1 µM; in assay [2], 0.1 to 1 µM; in assay [3], 5 to 10 µM; in assay [4] it was 1 to 5 µM.

Turning to `Cn1cc(-c2cc3c(N4CC[C@](C#N)(C5CCC5)C4=O)ccnn3c2)cn1` (single isomer, unassigned) [Example 47], the IC50 in assay [1] was > 0.1 µM; in assay [2] it was > 10 µM; in assay [3] it was > 10 µM; in assay [4], 5 to 10 µM.

For the molecule `Cn1cc(-c2cc3c(N4CC[C@](C#N)(C5CC5)C4=O)ccnc3[nH]2)cn1` [Example 2, (R)-3-cyclopropyl-1-(2-(1-methyl-1H-pyrazol-4-yl)-1H-pyrrolo[2,3-b]pyridin-4-yl)-2-oxopyrrolidine-3-carbonitrile], the IC50 was in the range of 0.05 to 0.1 µM in assay [1], 1 to 5 µM in assay [2], 0.1 to 1 µM in assay [3] and 0.1 to 1 µM in assay [4].

As to `Cn1cc(-c2cc3c(N4CCC(C#N)C4=O)ccnn3c2)cn1` (centres unmarked) [Example 7, 1-(6-(1-methyl-1H-pyrazol-4-yl)pyrrolo[1,2-b]pyridazin-4-yl)-2-oxopyrrolidine-3-carbonitrile], the IC50 was > 0.1 µM in assay [1], 5 to 10 µM in assay [2], > 10 µM in assay [3] and 5 to 10 µM in assay [4].

For `COc1cc(-c2cc3c(N4CC[C@](C#N)(C5CC5)C4=O)ccnn3c2)ccn1` [Example 13, (R)-3-cyclopropyl-1-(6-(2-methoxypyridin-4-yl)pyrrolo[1,2-b]pyridazin-4-yl)-2-oxopyrrolidine-3-carbonitrile], the IC50 was > 0.1 µM in assay [1], > 10 µM in assay [2], 5 to 10 µM in assay [3] and > 10 µM in assay [4].

In the case of `Cn1cc(-c2cc3c(N4CC[C@](C#N)(C5CC5)C4=O)ccnn3c2)cn1` [Example 14, (R)-3-cyclopropyl-1-(6-(1-methyl-1H-pyrazol-4-yl)pyrrolo[1,2-b]pyridazin-4-yl)-2-oxopyrrolidine-3-carbonitrile], the IC50 was > 0.1 µM in assay [1], > 10 µM in assay [2], > 10 µM in assay [3] and 5 to 10 µM in assay [4].

`Cn1cc(-c2cc3c(N4CC[C@@](C(F)F)(C5CC5)C4=O)ccnn3c2)cn1` [Example 15, (R)-3-cyclopropyl-3-(difluoromethyl)-1-(6-(1-methyl-1H-pyrazol-4-yl)pyrrolo[1,2-b]pyridazin-4-yl)pyrrolidin-2-one]: the IC50 was > 0.1 µM in assay [1], 1 to 5 µM in assay [2], 1 to 5 µM in assay [3] and 1 to 5 µM in assay [4].

Take `C[C@@H]1C[C@](C#N)(C2CC2)C(=O)N1c1ccnn2cc(-c3cnn(C)c3)cc12` [Example 16, (3R,5R)-3-cyclopropyl-5-methyl-1-(6-(1-methyl-1H-pyrazol-4-yl)pyrrolo[1,2-b]pyridazin-4-yl)-2-oxopyrrolidine-3-carbonitrile]: the IC50 is > 0.1 µM in assay [1], > 10 µM in assay [2], 5 to 10 µM in assay [3] and 0.1 to 1 µM in assay [4].

Consider `C[C@@H]1C[C@@](C#N)(C2CC2)C(=O)N1c1ccnn2cc(-c3cnn(C)c3)cc12` [Example 17, (3S,5R)-3-cyclopropyl-5-methyl-1-(6-(1-methyl-1H-pyrazol-4-yl)pyrrolo[1,2-b]pyridazin-4-yl)-2-oxopyrrolidine-3-carbonitrile], for which the IC50 was > 0.1 µM in assay [1], 5 to 10 µM in assay [2], 1 to 5 µM in assay [3] and 0.1 to 1 µM in assay [4].

For the molecule `CC[C@@H]1C[C@@](C#N)(C2CC2)C(=O)N1c1ccnn2cc(-c3cnn(C)c3)cc12` [Example 18, (3S,5R)-3-cyclopropyl-5-ethyl-1-(6-(1-methyl-1H-pyrazol-4-yl)pyrrolo[1,2-b]pyridazin-4-yl)-2-oxopyrrolidine-3-carbonitrile], the IC50 in assay [1] is > 0.1 µM; in assay [2], 1 to 5 µM; in assay [3] it was 1 to 5 µM; in assay [4], 0.1 to 1 µM.

As for `CC[C@H]1C[C@@](C#N)(C2CC2)C(=O)N1c1ccnn2cc(C3=NC(C)N=C3)cc12` (stereo partly drawn) [Example 19, (3S,5S)-3-cyclopropyl-5-ethyl-1-(6-(2-methyl-2H-imidazol-4-yl)pyrrolo[1,2-b]pyridazin-4-yl)-2-oxopyrrolidine-3-carbonitrile], the IC50 in assay [1] is > 0.1 µM; in assay [2] it was > 10 µM; in assay [3], > 10 µM; in assay [4], > 10 µM.

On to `C[C@@H]1CN(c2ccnn3cc(-c4cnn(C)c4)cc23)C(=O)[C@]1(C#N)C1COC1` [Example 20, (3S,4S)-4-methyl-1-(6-(1-methyl-1H-pyrazol-4-yl)pyrrolo[1,2-b]pyridazin-4-yl)-3-(oxetan-3-yl)-2-oxopyrrolidine-3-carbonitrile], for which the half-maximal inhibitory concentration (IC50) in assay [1] was > 0.1 µM; in assay [2] it was > 10 µM; in assay [3], > 10 µM; in assay [4], 5 to 10 µM.

For the molecule `C[C@@H]1CN(c2ccnn3cc(-c4cnn(C)c4)cc23)C(=O)[C@@]1(C#N)C1CC1` [Example 21, (3S,4S)-3-cyclopropyl-4-methyl-1-(6-(1-methyl-1H-pyrazol-4-yl)pyrrolo[1,2-b]pyridazin-4-yl)-2-oxopyrrolidine-3-carbonitrile], the IC50 in assay [1] is > 0.1 µM; in assay [2] it was > 10 µM; in assay [3], > 10 µM; in assay [4], > 10 µM.
